Blank lines part the entries; values can stand above or below the molecule they belong to.
Assays:
[1] = target: CYP450 (isoform not stated) (Homo sapiens, UniProt P04798+P05177+P05181+P08684+P10632+P10635+P11509+P11712+P13584+P20813+P20815+P20853+P24462+P24903+P33260+P33261+P51589+P78329+P98187+Q02928+Q08477+Q16678+Q16696+Q5TCH4+Q6VVX0+Q7Z449+Q8TAV3+Q96SQ9+Q9HB55); assay: in vitro; details: Liver
[2] = target: T1, Steroid 17-alpha-hydroxylase/17,20 lyase (Homo sapiens, UniProt P05093); format: ADME
T1 sequence (P05093 whole entry): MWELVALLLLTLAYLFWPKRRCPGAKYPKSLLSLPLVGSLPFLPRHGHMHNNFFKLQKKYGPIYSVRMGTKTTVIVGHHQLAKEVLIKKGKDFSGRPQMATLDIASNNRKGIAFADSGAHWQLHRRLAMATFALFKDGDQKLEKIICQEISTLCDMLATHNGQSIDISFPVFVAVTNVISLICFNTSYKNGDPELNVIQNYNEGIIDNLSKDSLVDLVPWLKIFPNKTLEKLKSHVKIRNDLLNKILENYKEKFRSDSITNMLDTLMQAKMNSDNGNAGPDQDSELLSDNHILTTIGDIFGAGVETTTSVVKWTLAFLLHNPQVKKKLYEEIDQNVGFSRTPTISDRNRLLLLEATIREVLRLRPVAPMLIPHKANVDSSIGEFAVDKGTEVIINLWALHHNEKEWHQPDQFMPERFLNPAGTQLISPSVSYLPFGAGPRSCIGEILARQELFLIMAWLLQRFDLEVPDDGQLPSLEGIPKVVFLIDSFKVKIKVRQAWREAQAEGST
Description: Inhibition of human testicular CYP17

Cytochrome P450 1B1 = target: T2, Cytochrome P450 1B1 (Homo sapiens, UniProt Q16678)
T2 sequence (Q16678 whole entry): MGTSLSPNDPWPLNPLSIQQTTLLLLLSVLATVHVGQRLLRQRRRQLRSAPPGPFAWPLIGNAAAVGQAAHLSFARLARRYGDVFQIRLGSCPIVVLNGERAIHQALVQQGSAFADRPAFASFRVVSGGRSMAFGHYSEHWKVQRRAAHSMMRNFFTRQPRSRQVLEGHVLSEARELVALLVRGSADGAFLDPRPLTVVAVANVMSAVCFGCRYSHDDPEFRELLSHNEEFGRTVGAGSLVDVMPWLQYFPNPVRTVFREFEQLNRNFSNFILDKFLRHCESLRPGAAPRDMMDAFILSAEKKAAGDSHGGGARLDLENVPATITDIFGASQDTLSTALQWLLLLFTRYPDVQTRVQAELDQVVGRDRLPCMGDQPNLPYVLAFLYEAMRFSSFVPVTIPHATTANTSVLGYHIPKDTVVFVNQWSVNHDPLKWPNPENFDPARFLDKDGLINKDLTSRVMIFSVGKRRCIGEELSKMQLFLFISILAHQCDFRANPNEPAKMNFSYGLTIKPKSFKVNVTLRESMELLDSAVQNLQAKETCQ
Description: Inhibition of recombinant human CYP1B1 using 7-ethyl-0-resorufin as substrate incubated for 30 mins in presence of NADPH

Cytochrome P450 2C19 = Cytochrome P450 2C19 (Homo sapiens, UniProt P33261)
Description: Inhibition of CYP2C19 in human liver microsomes incubated in presence NADPH

Aromatase = target: T3, Aromatase (Homo sapiens, UniProt P11511); format: cell-based, JEG-3
T3 sequence (P11511 whole entry): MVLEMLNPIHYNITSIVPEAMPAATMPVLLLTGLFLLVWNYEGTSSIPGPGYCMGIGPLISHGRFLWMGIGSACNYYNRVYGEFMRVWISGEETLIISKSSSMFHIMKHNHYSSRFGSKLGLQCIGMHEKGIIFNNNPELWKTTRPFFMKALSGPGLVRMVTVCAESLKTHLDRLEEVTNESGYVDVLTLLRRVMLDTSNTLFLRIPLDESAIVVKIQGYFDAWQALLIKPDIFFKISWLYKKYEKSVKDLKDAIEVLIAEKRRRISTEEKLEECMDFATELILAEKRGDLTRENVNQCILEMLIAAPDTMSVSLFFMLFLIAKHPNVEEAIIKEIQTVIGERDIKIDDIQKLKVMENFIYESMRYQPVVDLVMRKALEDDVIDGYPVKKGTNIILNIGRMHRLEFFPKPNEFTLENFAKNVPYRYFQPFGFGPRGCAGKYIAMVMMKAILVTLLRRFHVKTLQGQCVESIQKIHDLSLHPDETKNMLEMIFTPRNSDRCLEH

Sequence of Cytochrome P450 2C19 (P33261 whole entry): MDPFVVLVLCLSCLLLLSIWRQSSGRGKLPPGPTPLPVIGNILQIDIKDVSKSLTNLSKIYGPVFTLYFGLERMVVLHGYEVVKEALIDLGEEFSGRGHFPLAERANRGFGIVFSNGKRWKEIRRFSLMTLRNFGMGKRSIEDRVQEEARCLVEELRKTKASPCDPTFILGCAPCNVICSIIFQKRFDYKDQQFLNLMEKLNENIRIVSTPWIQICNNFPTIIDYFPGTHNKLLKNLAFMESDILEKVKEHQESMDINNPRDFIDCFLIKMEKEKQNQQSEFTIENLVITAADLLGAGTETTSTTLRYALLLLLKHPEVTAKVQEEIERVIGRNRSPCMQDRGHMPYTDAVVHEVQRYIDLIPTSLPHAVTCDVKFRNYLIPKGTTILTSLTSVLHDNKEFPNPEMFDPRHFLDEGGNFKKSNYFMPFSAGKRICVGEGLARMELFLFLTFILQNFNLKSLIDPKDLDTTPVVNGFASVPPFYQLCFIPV

IC50 [1]: 2810 µM
SMILES: Oc1ccc2c(c1)CCC1C(c3ccncc3)C21 (stereo unspecified)

IC50 [2]: 39.5 µM
SMILES: c1ccc2c(c1)CCC1C(c3ccncc3)C21 (stereo unspecified)

pIC50 (Cytochrome P450 1B1): 13.573
SMILES: COc1ccc(/C=C/c2c(CC=C(C)C)c(O)cc(O)c2CC=C(C)C)cc1

IC50 (Cytochrome P450 2C19): 10 µM
SMILES: CCn1cc(C(c2ccc(Cl)cc2)n2ccnn2)c2cc(Br)ccc21 (stereo unspecified)

IC50 (Aromatase): 0.00701 µM
SMILES: N#Cc1ccccc1-c1cccc(Cn2cncn2)c1

IC50 [1]: 6.05 µM
SMILES: Oc1cccc2c1CCC1C(c3ccncc3)C21 (stereo unspecified)

Reference: ChEMBL document CHEMBL5375941, “Combating breast cancer with non-steroidal aromatase inhibitors (NSAIs): Understanding the chemico-biological interactions through comparative SAR/QSAR study” (Eur J Med Chem, 2017)
